Measurements as given in PubChem BioAssay AID504570 (Southern Research Specialized Biocontainment Screening …, 2011).
pIC50: −log10 of the molar value.

System: MAGI-CCR5 HeLa cells, HIV-1 IIIB, beta-gal luminescence, 48 h
Assay: inhibitors of X4-tropic HIV-1 replication, dose response, cell-based, MAGI-CCR5 HeLa, beta-gal luminescence, 2% serum, set 2 (AID 504570)

Structure (SMILES)	pIC50
Cc1c2c(=O)n(-c3nc4ccccc4s3)nc-2cc(O)n1Cc1ccncc1	4.83
COc1ccccc1Cn1c(O)cc2nn(-c3nc4ccccc4s3)c(=O)c-2c1C	4.58
Cc1c2c(=O)n(-c3nc4ccccc4s3)nc-2cc(O)n1Cc1ccccc1	4.84
COc1ccc(Cn2c(O)cc3nn(-c4nc5ccccc5s4)c(=O)c-3c2C)cc1	4.47
Cc1c2c(=O)n(-c3nc4ccccc4s3)nc-2cc(O)n1CCc1ccc(O)cc1	4.59
Cc1c2c(=O)n(-c3nc4ccccc4s3)nc-2cc(O)n1CCc1cccs1	4.59

The next compounds have a higher pIC50 than those just listed; values first:

pIC50	Structure (SMILES)
4.92	Cc1c2c(=O)n(-c3nc4ccccc4s3)nc-2cc(O)n1Cc1cccs1
4.93	COc1ccc(CCn2c(O)cc3nn(-c4nc5ccccc5s4)c(=O)c-3c2C)cc1
5.12	Cc1c2c(=O)n(-c3nc4ccccc4s3)nc-2cc(O)n1C1CC1
5.15	Cc1c2c(=O)n(-c3nc4ccccc4s3)nc-2cc(O)n1Cc1cccnc1
5.27	Cc1c2c(=O)n(-c3nc4ccccc4s3)nc-2cc(O)n1CCC(C)C
5.43	Cc1c2c(=O)n(-c3nc4ccccc4s3)nc-2cc(O)n1Cc1ccc(F)cc1
5.51	Cc1c2c(=O)n(-c3nc4ccccc4s3)nc-2cc(O)n1Cc1ccccc1Cl
